Columns and labels:
Assay in all cases: biochemical
Type in all cases: biochemical
[1] = biological target: T1, 363 human kinases (including Aurora A/B/C) (Homo sapiens, UniProt Q6PHR2); settings: ULK3; for remaining activity at 0.1 µM: 100 nM; for remaining activity at 0.1 µM / remaining activity at 0.5 µM: read-out: % Enzyme Activity (relative to DMSO controls)
T1 sequence (Q6PHR2 1-472): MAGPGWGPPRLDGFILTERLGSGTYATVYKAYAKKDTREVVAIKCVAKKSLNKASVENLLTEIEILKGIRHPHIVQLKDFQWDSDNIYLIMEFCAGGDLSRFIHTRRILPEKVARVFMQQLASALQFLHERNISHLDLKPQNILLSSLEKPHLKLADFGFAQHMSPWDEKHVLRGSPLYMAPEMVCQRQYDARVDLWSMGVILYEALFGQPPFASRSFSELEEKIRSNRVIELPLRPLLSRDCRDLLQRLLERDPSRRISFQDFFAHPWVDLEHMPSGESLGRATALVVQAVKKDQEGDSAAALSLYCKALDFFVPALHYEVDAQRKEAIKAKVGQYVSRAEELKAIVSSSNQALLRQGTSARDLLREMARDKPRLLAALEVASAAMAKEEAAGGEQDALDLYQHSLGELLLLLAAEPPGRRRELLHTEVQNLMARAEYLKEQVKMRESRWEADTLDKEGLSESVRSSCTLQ
Excerpt: (§1) However, the Aurora A/B selectivity ratios derived from our in vitro and in vivo data can be compared to prioritize inhibitors.

[2] = biological target: T2, 363 human kinases (including Aurora A/B/C) (Homo sapiens, UniProt Q12851); settings: GCK/MAP4K2; for remaining activity at 0.1 µM: 100 nM; for remaining activity at 0.1 µM / remaining activity at 0.5 µM: read-out: % Enzyme Activity (relative to DMSO controls)
T2 sequence (Q12851 1-820): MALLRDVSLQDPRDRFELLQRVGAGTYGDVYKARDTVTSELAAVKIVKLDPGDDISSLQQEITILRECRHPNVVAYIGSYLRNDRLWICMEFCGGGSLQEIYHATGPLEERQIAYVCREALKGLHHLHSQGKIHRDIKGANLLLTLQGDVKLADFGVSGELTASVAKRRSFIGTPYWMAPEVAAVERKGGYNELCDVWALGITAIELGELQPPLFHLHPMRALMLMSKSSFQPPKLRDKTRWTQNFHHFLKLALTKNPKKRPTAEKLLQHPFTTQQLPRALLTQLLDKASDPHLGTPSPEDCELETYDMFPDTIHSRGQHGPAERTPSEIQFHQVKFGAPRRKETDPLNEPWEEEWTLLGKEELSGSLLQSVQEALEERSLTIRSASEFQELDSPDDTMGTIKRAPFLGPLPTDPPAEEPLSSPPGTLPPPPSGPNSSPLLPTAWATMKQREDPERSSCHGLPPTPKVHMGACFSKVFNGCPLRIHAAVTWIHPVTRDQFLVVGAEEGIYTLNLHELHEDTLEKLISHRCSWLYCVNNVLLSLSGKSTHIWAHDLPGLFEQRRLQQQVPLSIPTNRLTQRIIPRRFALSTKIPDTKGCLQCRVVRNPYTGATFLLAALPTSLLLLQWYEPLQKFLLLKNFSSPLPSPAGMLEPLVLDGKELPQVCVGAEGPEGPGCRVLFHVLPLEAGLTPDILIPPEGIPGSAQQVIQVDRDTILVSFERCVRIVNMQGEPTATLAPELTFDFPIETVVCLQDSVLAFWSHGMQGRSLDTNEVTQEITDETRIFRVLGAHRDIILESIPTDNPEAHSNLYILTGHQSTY
Excerpt: as §1

[3] = biological target: T3, 363 human kinases (including Aurora A/B/C) (Homo sapiens, UniProt P51956); settings: NEK3; for remaining activity at 0.1 µM: 100 nM; for remaining activity at 0.1 µM / remaining activity at 0.5 µM: read-out: % Enzyme Activity (relative to DMSO controls)
T3 sequence (P51956 1-506): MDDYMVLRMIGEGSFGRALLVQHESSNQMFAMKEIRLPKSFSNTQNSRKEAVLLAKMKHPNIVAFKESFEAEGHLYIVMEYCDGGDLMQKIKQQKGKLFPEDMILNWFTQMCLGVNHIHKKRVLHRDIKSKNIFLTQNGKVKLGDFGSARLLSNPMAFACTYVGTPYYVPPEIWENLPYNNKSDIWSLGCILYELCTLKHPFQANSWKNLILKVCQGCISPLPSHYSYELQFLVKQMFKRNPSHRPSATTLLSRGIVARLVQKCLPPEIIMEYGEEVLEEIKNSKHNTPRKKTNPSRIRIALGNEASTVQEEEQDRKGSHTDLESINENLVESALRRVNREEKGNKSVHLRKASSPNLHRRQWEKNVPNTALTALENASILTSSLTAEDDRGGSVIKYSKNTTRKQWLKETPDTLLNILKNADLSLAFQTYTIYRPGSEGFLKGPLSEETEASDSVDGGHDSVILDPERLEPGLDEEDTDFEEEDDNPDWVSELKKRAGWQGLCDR
Excerpt: as §1

[4] = biological target: T4, 363 human kinases (including Aurora A/B/C) (Homo sapiens, UniProt P54760); settings: EPHB4, [ATP] 20 µM; for remaining activity at 0.1 µM: 100 nM; for remaining activity at 0.1 µM / remaining activity at 0.5 µM: read-out: % Enzyme Activity (relative to DMSO controls)
T4 sequence (P54760 16-987): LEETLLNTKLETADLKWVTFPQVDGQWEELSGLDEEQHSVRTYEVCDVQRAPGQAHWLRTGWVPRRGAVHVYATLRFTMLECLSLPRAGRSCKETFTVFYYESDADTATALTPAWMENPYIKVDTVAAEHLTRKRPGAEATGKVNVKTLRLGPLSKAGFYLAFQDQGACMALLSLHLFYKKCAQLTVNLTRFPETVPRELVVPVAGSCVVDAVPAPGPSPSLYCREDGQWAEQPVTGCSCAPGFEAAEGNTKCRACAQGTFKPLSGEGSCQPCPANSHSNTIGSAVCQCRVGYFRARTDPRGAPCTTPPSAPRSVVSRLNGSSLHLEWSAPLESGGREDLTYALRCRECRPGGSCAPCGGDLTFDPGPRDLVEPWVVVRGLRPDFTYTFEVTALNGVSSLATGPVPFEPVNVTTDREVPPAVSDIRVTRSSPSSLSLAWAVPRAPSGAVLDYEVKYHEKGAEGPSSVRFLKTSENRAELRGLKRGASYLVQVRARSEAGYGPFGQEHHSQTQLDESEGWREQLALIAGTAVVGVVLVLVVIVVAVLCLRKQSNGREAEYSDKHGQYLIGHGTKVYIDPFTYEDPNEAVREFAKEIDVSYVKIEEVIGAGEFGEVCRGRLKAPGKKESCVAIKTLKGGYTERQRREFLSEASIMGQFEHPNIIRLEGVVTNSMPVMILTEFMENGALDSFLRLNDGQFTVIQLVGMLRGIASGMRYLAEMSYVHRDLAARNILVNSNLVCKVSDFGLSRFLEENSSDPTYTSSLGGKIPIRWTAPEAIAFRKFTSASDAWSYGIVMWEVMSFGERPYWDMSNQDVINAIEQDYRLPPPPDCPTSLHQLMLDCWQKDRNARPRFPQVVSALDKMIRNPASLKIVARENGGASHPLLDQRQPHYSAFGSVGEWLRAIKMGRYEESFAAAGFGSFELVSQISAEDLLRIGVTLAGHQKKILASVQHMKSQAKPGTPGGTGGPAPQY
Excerpt: as §1

[5] = biological target: 363 human kinases (including Aurora A/B/C) (Homo sapiens, UniProt P43250); settings: GRK6; for remaining activity at 0.1 µM: 100 nM; for remaining activity at 0.1 µM / remaining activity at 0.5 µM: read-out: % Enzyme Activity (relative to DMSO controls)
Chain of 363 human kinases (including Aurora A/B/C) (Homo sapiens, UniProt P43250) (P43250 whole entry): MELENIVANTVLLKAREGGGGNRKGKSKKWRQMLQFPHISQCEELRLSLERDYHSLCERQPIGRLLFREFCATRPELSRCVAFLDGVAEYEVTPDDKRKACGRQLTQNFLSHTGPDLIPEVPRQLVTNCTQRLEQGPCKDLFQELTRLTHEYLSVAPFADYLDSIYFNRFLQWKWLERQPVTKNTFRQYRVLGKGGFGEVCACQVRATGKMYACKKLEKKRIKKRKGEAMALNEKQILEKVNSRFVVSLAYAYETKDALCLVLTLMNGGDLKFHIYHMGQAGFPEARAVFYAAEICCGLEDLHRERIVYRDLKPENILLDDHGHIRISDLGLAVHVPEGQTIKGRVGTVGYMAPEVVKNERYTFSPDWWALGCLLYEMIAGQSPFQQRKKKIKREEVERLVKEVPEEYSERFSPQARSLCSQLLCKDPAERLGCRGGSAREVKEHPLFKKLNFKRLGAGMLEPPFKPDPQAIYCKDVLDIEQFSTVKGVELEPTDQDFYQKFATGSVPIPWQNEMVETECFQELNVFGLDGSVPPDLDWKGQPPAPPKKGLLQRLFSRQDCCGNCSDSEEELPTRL
Excerpt: as §1

Structure (SMILES) | remaining activity at 0.1 µM [1] | remaining activity at 0.1 µM [2] | remaining activity at 0.1 µM [3] | remaining activity at 0.1 µM [4] | remaining activity at 0.1 µM [5] | remaining activity at 0.5 µM ([1]; 500 nM) | remaining activity at 0.5 µM ([2]; 500 nM) | remaining activity at 0.5 µM ([3]; 500 nM) | remaining activity at 0.5 µM ([4]; 500 nM) | remaining activity at 0.5 µM ([5]; 500 nM) | % Enzyme Activity (relative to DMSO controls) ([1]; 500 nM) | % Enzyme Activity (relative to DMSO controls) ([2]; 500 nM) | % Enzyme Activity (relative to DMSO controls) ([3]; 500 nM) | % Enzyme Activity (relative to DMSO controls) ([4]; 500 nM) | % Enzyme Activity (relative to DMSO controls) ([5]; 500 nM)
CCn1cc(-c2ccnc3[nH]c(-c4cccc(CN(C)C)c4)cc23)c(-c2ccc(NC(=O)N(C)C)cc2)n1 [GSK1070916] | 93.8% | 91.1% | 97.7% | 87.9% | 106% |  |  |  |  |  |  |  |  |  | 
O=C(O)[C@]1(Cc2cccc(Nc3nccs3)n2)CC[C@@H](Oc2cccc(Cl)c2F)CC1 [MK-5108] | 89.6% | 97.2% | 99.3% | 29.5% | 104% | 62.1% | 69.4% | 101% | 5.58% | 101% |  |  |  |  | 
O=C(c1cccc(Cl)c1F)N1CCN(Cc2cccc(Nc3nccs3)n2)CC1 [MK-8745] |  |  |  |  |  | 94.4% | 93.7% | 100% | 47.7% | 100% | 93.40% | 91.89% | 99.14% | 47.01% | 98.74%
